# According to ChEMBL document CHEMBL4339247, “Ascomylactams A-C, Cytotoxic 12- or 13-Membered-Ring Macrocyclic Alkaloids Isolated from the Mangrove Endophytic Fungus Didymella sp. CYSK-4, and Structure Revisions of Phomapyrrolidones A and C” (J Nat Prod, 2019):
# pIC50: −log10 of the molar value.
# Tests used:
# Assay type in all cases: functional, cell-based
# [1] = tested on: PC-3; experiment: Cytotoxicity in human PC3 cells assessed as reduction in cell viability incubated for 72 hrs by MTT assay; settings: PC-3, 72 h
# [2] = tested on: NCI-H460; experiment: Cytotoxicity in human NCI-H460 cells assessed as reduction in cell viability incubated for 72 hrs by MTT assay; settings: NCI-H460, 72 h
# [3] = tested on: SNB-19; experiment: Cytotoxicity in human SNB19 cells assessed as reduction in cell viability incubated for 72 hrs by MTT assay; settings: SNB-19, 72 h
# [4] = tested on: MDA-MB-231; experiment: Cytotoxicity in human MDA-MB-231 cells assessed as reduction in cell viability incubated for 72 hrs by MTT assay; settings: MDA-MB-231, 72 h
# [5] = tested on: MDA-MB-435; experiment: Cytotoxicity in human MDA-MB-435 cells assessed as reduction in cell viability incubated for 72 hrs by MTT assay; settings: MDA-MB-435, 72 h
# [6] = tested on: HCT-116; experiment: Cytotoxicity in human HCT116 cells assessed as reduction in cell viability incubated for 72 hrs by MTT assay; settings: HCT-116, 72 h
structure (smiles),measurement,setting,value
CC1=C[C@@]2(C)C(=C(C)[C@H]3[C@@H]4C[C@H](C)C[C@H](C)[C@H]4[C@@H]4Oc5ccc(cc5)C[C@@]5(O)C=C(C(=O)N5)C(=O)[C@@H]2[C@@H]43)[C@H]1C,pIC50,[1],4.70
same,pIC50,[2],4.89
same,pIC50,[3],4.74
same,pIC50,[4],5.18
same,pIC50,[5],4.92
same,pIC50,[6],5.35
CC1=C[C@@]2(C)C(=C(C)[C@H]3[C@@H]4C[C@H](C)C[C@H](C)[C@H]4[C@H]4Oc5ccc(cc5)C[C@@H]5C(=O)NC(=O)[C@H]5C(=O)[C@@H]2[C@@H]43)[C@H]1C,pIC50,[1],< 4.30
same,pIC50,[2],4.55
same,pIC50,[3],< 4.30
same,pIC50,[4],4.52
same,pIC50,[5],4.59
same,pIC50,[6],4.60
CC1=C[C@@]2(C)C(=C(C)[C@H]3[C@@H]4C[C@H](C)C[C@H](C)[C@H]4[C@H]4Oc5ccc(cc5)C[C@]5(O)NC(=O)[C@]6(O[C@H]65)C(=O)[C@@H]2[C@@H]43)[C@H]1C,pIC50,[1],5.12
same,pIC50,[2],5.36
same,pIC50,[3],5.11
same,pIC50,[4],5.29
same,pIC50,[5],5.11
same,pIC50,[6],5.38
CC1=C[C@@]2(C)C(=C(C)[C@H]3[C@@H]4C[C@H](C)C[C@H](C)[C@H]4[C@H]4Oc5ccc(cc5)C[C@]5(O)NC(=O)[C@]6(O[C@H]65)C(=O)[C@H]2[C@@H]43)[C@H]1C,pIC50,[1],4.66
same,pIC50,[2],4.92
same,pIC50,[3],4.54
same,pIC50,[4],4.92
same,pIC50,[5],4.80
same,pIC50,[6],4.82
CO[C@@H]1/C2=C(\O)[C@H]3[C@H]4[C@H](Oc5ccc(cc5)C[C@]1(O)NC2=O)[C@H]1[C@@H](C[C@H](C)C[C@@H]1C)[C@@H]4C(C)=C1[C@@H](C)C(C)=C[C@@]13C,pIC50,[1],5.24
same,pIC50,[2],5.36
same,pIC50,[3],5.17
same,pIC50,[4],5.23
same,pIC50,[5],5.31
same,pIC50,[6],5.26
COc1cccc2c1C(=O)c1c(O)c3c(c(O)c1C2=O)C[C@@](O)(C(=O)CO)C[C@@H]3O[C@H]1C[C@H](N)[C@@H](O)[C@H](C)O1 [EPIRUBICIN],pIC50,[3],5.64
